# From ChEMBL document CHEMBL3739325, “Design of pyrazolo-pyrimidines as 11-HSD1 inhibitors through optimisation of molecular electrostatic potential” (Medchemcomm, 2015)
# Tests used:
# [1] = Lipophilicity, log D of the compound in octanol at pH 7.4; type: physicochemical
# [2] = tested on: human transporter (not named); assay: Apparent permeability of the compound in MDCK cells expressing human transporter […]; type: ADME, cell-based, Canis lupus familiaris; conditions: dog
# [3] = Ratio of total drug uptake in brain to blood in Han Wistar rat after 1 hr; type: ADME, tissue-based; conditions: brain and blood, read-out: BBR
Compound,logD [1],Papp [2],Kp at 1 h [3]
Cc1cc(C)n2ncc(C(=O)N[C@H]3C4CC5CC3C[C@](O)(C5)C4)c2n1,2,–,–
CO[C@]12CC3CC(C1)[C@@H](NC(=O)c1cnn4cc(C)cnc14)C(C3)C2,2.6,49 ×10⁻⁶ cm/s,–
Cc1ccnc2c(C(=O)N[C@H]3C4CC5CC3C[C@](O)(C5)C4)cnn12,2,–,0.3
O=C(N[C@H]1C2CC3CC1C[C@](O)(C3)C2)c1cnc2cccnn12,1.2,–,–
O=C(N[C@H]1C2CC3CC1C[C@](O)(C3)C2)c1cnn2cc(Cl)cnc12,1.8,44 ×10⁻⁶ cm/s,0.3
O=C(N[C@H]1C2CC3CC1C[C@](O)(C3)C2)c1cnn2cccnc12,1.4,–,–
O=C(N[C@H]1C2CC3CC1C[C@](O)(C3)C2)c1cnn2ccccc12,1.5,–,–
Cc1cnc2c(C(=O)N[C@H]3C4CC5CC3C[C@](O)(C5)C4)cnn2c1,1.7,29 ×10⁻⁶ cm/s,0.3
N#C[C@]12CC3CC(C1)[C@@H](NC(=O)c1cnn4cc(Cl)cnc14)C(C3)C2,2.5,41 ×10⁻⁶ cm/s,0.6
Cc1cc(C(F)(F)F)n2ncc(C(=O)N[C@H]3C4CC5CC3C[C@](O)(C5)C4)c2n1,2.3,–,–
COc1cnc2c(C(=O)N[C@H]3C4CC5CC3C[C@](O)(C5)C4)cnn2c1,1.8,–,–
COCc1cc(C)nc2c(C(=O)N[C@H]3C4CC5CC3C[C@](O)(C5)C4)cnn12,2.1,–,–
Cc1ccnc2c(C(=O)N[C@H]3C4CC5CC3C[C@](C#N)(C5)C4)cnn12,2.4,–,–
COCc1cc(C)nc2c(C(=O)N[C@H]3C4CC5CC3C[C@](C#N)(C5)C4)cnn12,2.7,–,–
Cc1cc(C)n2ncc(C(=O)N[C@H]3C4CC5CC3C[C@](C#N)(C5)C4)c2n1,2.9,–,–
O=C(NC1C2CC3CC(C2)CC1C3)c1cnn2cccnc12 (stereo not given),3.5,–,–
O=C(N[C@H]1C2CC3CC1C[C@](O)(C3)C2)c1cnn2c(C(F)(F)F)ccnc12,2,–,–
Cc1cnc2c(C(=O)N[C@H]3C4CC5CC3C[C@](C#N)(C5)C4)cnn2c1,2.3,46 ×10⁻⁶ cm/s,1.6
Cc1cc(C(F)F)n2ncc(C(=O)N[C@H]3C4CC5CC3C[C@](O)(C5)C4)c2n1,2.2,–,–
COCc1cc(C)n2ncc(C(=O)N[C@H]3C4CC5CC3C[C@](C#N)(C5)C4)c2n1,2.4,–,–
COCc1cc(C)n2ncc(C(=O)N[C@H]3C4CC5CC3C[C@](O)(C5)C4)c2n1,1.8,–,–
N#Cc1cnc2c(C(=O)N[C@H]3C4CC5CC3C[C@](O)(C5)C4)cnn2c1,0.6,–,–
Cc1ccn2ncc(C(=O)N[C@H]3C4CC5CC3C[C@](O)(C5)C4)c2n1,1.9,–,–
N#C[C@]12CC3CC(C1)[C@@H](NC(=O)c1cnn4cc(CCO)cnc14)C(C3)C2,1.6,–,–
O=C(N[C@H]1C2CC3CC1C[C@](O)(C3)C2)c1cnn2c(C(F)F)cc(C3CC3)nc12,2.8,–,–
